Like-named read-outs stand apart in the source and are kept apart here.
Assays:
[1] = tested on: BRAF^V600E melanoma cell lines; experiment: Growth response to drug combinations with VEM (Bliss combination index); type: cell-based; conditions: A375 and Sk-Mel-28; VEM + 2nd drug
From the text: (a) Summary of possible cell responses to the combination of two drugs. The heatmap on the left represents the experimental effects of combining increasing concentrations of drug A+B as changes in cancer cell growth. The middle graph is a conceptual representation of how differences in effects of drugs alone or combined can be interpreted as either synergistic, additive, or antagonistic (derived from^10). The heatmap on the right represents the calculated combination index from all experimental cell growth data points. We decided to analyze experimental profiles using the Bliss Independence model to calculate combination indices (CI) and avoid inaccuracies from dose-effect curve estimations (CI=log 2 (Eab/(Ea*Eb); synergy CI<0; additivity CI=0; antagonism CI>0) 10-12. (b) Maps of cell growth responses (left) and combination indices (right). We tested the dependency of BRAF^V600E melanoma cell lines for kinases found as differentially active by HT-KAM in patient tumors (FIG. 26a,b). We included everolimus or trametinib (bottom two rows) as experimental ‘positive’ controls and for side-by-side comparison of the effects of other kinase-targeting drugs we tested. Arrows located above and on the left of each cell growth heatmaps serve as indicators of GI50 concentrations for each drug alone.
(§1) To assess the growth/survival response of cell lines to single or combinatorial drug treatments in FIGS. 2-3 and FIGS. 20, 22, 28, 29, we used CellTiter-Glo cell viability assay (Promega; cat #G7571). Cell culture and luminescence readouts were performed in 96- and 384-well plates after 3-day treatments. Drug treatment conditions are described in the text. The effects of drug combinations on cell growth were assessed by calculating drug interaction (D.I.; two-way ANOVA using Prism or Sigma Plot software) and combination index (C.I.; following either the Loewe Additivity^6-9 or Bliss Independence models^[…]). […] We systematically tested the effects of drugs in both regular and low serum culture conditions (i.e. 5% and 0.25% FBS media). To quantitate cell death in FIG. 3 and FIGS. 28-29, FACS analysis of nuclear degradation was performed as previously described^13. Colony formation assay in FIG. 3 and FIG. 30 were performed as previously described^5.

[2] = tested on: A375; experiment: 3-day CellTiter-Glo cell viability assay; type: cell-based; conditions: read-out: GI50, drug alone
Method: as §1

[3] = tested on: Sk-Mel-28; experiment: 3-day CellTiter-Glo cell viability assay; type: cell-based; conditions: read-out: GI50, drug alone
Method: as §1

[4] = target: T1, AKT1 (Homo sapiens, UniProt P31749); experiment: HT-KAM ATP-consumption kinase activity assay with inhibitors; type: biochemical; conditions: control assays, data not shown
T1 construct: purchased SignalChem A16-10G

[5] = tested on: M032R6.X1. CL; experiment: 3-week colony formation assay; type: cell-based; conditions: PDX-derived cell line with high RPS6KB1
From the text: (§2) (a-b) Phospho-RPS6KB profiles of two patient-derived xenografts (PDXs) tumor tissues (a) and related cell lines (b). PDXs were previously^4,5 established from patients refractory to BRAF^V600E-therapy. A limited number of primary cell lines were derived from these PDX's. (c) Sensitivity of primary melanoma cell lines to RPS6KB-inhibitor PF-4708671 in 3-week colony formation assays.
as §1

[6] = tested on: M061R.X1. CL; experiment: 3-week colony formation assay; type: cell-based; conditions: PDX-derived cell line without high RPS6KB1
From the text: as §2, §1

[7] = target: LCK (Homo sapiens, UniProt P06239); conditions: literature reports; cited from earlier work
[8] = tested on: A375 myrAKT1 cells; experiment: 3-day cell viability assay, myrAKT1-expressing cells; type: cell-based; conditions: myrAKT1-expressing vs control counterpart; p=2.77E-06
From the text: FIG. 29. A375 expressing a constitutively active AKT1 oncogenic kinase remain sensitive to RPS6KB- or PIM-targeting. We exogenously expressed myrAKT1 (i.e. a constitutively active oncogenic AKT1) in A375 cells. We then tested the sensitivity of A375 myrAKT1 cells to drug combinations.
as §1

[9] = tested on: WiDr cells; experiment: 3-day cell viability assay; type: cell-based; conditions: Homo sapiens, 72 h, read-out: GI50 concentration
From the text: FIG. 20. Response of BRAF^V600E CRC cells to targeted therapy combinations. To validate the kinase activity signatures of VEM-resistant WiDr cells found by HT-KAM screen, and as a mean to assess the role of these kinases (AKT1, PDPK1, PRKCA, SGK1) as mediators of the response to VEM and their potential value as druggable vulnerabilities in our model, we used 3-day cell viability assays to monitor the response of cells to drug combinations.
as §1

[10] = Homo sapiens, A-375, 72 h, 0.25% FBS media
[11] = Homo sapiens, A-375, 72 h, 5% FBS media
[12] = Homo sapiens, SK-MEL-28, 72 h, 0.25% FBS media
[13] = Homo sapiens, SK-MEL-28, 72 h, 5% FBS media

LCK, sequence (P06239 whole entry, species assumed): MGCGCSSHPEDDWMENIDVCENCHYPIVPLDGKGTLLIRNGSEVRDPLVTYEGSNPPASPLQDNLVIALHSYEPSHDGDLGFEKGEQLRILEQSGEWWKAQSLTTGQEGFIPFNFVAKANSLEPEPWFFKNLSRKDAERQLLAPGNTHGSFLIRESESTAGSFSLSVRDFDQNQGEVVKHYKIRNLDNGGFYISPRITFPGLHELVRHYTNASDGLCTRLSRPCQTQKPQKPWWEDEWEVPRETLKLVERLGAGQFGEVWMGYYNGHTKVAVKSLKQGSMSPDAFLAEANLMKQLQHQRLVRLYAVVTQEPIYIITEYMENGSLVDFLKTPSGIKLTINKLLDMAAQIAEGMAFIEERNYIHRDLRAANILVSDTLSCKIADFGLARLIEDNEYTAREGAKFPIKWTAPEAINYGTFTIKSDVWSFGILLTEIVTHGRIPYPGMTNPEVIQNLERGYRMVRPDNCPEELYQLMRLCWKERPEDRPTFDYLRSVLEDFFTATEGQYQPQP
T1 sequence (P31749 whole entry): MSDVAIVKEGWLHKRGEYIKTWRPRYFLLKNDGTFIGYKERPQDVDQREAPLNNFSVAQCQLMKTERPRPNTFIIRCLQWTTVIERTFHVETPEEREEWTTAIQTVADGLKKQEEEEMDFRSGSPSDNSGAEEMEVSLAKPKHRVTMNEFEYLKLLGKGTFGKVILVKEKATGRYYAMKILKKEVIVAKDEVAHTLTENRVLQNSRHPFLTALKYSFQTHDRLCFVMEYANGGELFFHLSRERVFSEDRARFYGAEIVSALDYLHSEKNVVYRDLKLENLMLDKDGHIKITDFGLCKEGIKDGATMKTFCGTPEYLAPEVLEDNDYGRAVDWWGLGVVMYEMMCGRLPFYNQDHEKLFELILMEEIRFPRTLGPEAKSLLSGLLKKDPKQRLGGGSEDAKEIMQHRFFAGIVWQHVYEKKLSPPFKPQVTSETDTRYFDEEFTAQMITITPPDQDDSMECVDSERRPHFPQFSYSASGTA

Compound	effect of combination with VEM on cell growth / combination index [1]	GI50 ([2]; 0.25% FBS media) [µM]	GI50 ([2]; 5% FBS media) [µM]	GI50 ([3]; 0.25% FBS media) [µM]	GI50 ([3]; 5% FBS media) [µM]	GI50 [2, 10] [µM]	GI50 [2, 11] [µM]	GI50 [3, 12] [µM]	GI50 [3, 13] [µM]	further results
O=C1Cc2c([nH]c3ccc(Br)cc23)-c2ncccc2N1 [1-Azakenpaullone]	antagonizing the effects of VEM treatment	2.5	20	10	20					
N[C@@H]1CCCN(c2c(/C=C3\SC(=O)NC3=O)cccc2-c2ccccc2)C1 [AZD1208]	strong growth inhibitory effects	12.5	12.5	25	25					
CC(C)CCN1c2nc(Nc3cc(F)c(O)c(F)c3)ncc2N(C)C(=O)C1C (stereo not shown) [BI-D1870]	additive effects only	> 50	12.5	12.5	25					
COc1ccc2c(c1)c(C1=C(c3c[nH]c4ccccc34)C(=O)NC1=O)cn2CCCN(C)C [Go6983]	limited additivity effects									
Cn1cc(-c2ccc(F)c(C(F)(F)F)c2)nc1C1CCN(c2ncnc3[nH]ncc23)CC1 [LY2584702]	strong growth inhibitory effects					> 200	50	100	100	
NC1(c2ccc(-c3nc4ccn5c(=O)[nH]nc5c4cc3-c3ccccc3)cc2)CCC1 [MK2206]						2.5	10	5	2.5	effect on AKT1 activity [4]: effectively decreased AKT1 activity
CCc1cncnc1N1CCN(Cc2nc3ccc(C(F)(F)F)cc3[nH]2)CC1 [PF-4708671]	strong growth inhibitory effects	16	32	16	32					sensitivity in colony formation [5]: sensitive; sensitivity in colony formation [6]: not sensitive
CN(C)S(=O)(=O)c1ccc2c(c1)/C(=C/c1cc3c([nH]1)CCCC3)C(=O)N2 [SU6656]										IC50 [7]: > 5 µM
CN1CCN(c2nc(C3=C(c4c[nH]c5ccccc45)C(=O)NC3=O)c3ccccc3n2)CC1 [Sotrastaurin, sotrastaurin]	limited additivity effects									
CCCS(=O)(=O)Nc1ccc(F)c(C(=O)c2c[nH]c3ncc(-c4ccc(Cl)cc4)cc23)c1F [VEM, vemurafenib]						0.02	0.15	0.31	0.63	increase in GI50 versus control A375 [8]: 65%; GI50 [9]: 2 µM
CO[C@H]1C[C@@H]2CC[C@@H](C)[C@@](O)(O2)C(=O)C(=O)N2CCCC[C@H]2C(=O)O[C@H]([C@H](C)C[C@@H]2CC[C@@H](OCCO)[C@H](OC)C2)CC(=O)[C@H](C)/C=C(\C)[C@@H](O)[C@@H](OC)C(=O)[C@H](C)C[C@H](C)/C=C/C=C/C=C/1C [everolimus]						10	5	10	10	
CC(=O)Nc1cccc(-n2c(=O)n(C3CC3)c(=O)c3c(Nc4ccc(I)cc4F)n(C)c(=O)c(C)c32)c1 [trametinib]						0.0025	0.005	0.01	0.01	
